# Results: US12344610B2, “APOL1 inhibitors and methods of use” (Maze Therapeutics, Inc., priority 2022, dated 2025)
# pEC50: −log10 of the molar value.
# What was measured:
# [1] = test system: HEK293 clonal cell line overexpressing APOL1 G1; experiment: APOL1 G1 HEK293 cell rescue assay (Example B3); type: cell-based; details: geometric mean of at least 2 runs, † = single run, ¥ = concentration at 50% rescue estimated (no sigmoidal curve)
# In short: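 HEK293 clonal line overexpressing APOL1 G1; EC50 is half-maximal reversal of APOL1-induced cell death. Values are the geometric mean of ≥2 runs on separate days, each run the average of duplicate wells. Where no sigmoidal curve could be fitted, the concentration giving 50% rescue was estimated.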
# [2] = test system: human immortalized podocytes inducibly expressing APOL1 G2; experiment: APOL1 G2 podocyte cell rescue assay (Example B4); type: cell-based; details: differentiated human podocytes, doxycycline-induced APOL1 G2, CellTiter-Glo, geometric mean of at least 2 runs, † = single run
# In short: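 Differentiated hTERT-immortalized podocytes (clone D10) with doxycycline-inducible C-terminally HiBiT-tagged APOL1 G2, 6,000 cells/well, treated with doxycycline plus 8-point 3-fold compound series (0.4% DMSO) for 95 h at 37 °C. Viability by CellTiter-Glo luminescence; EC50 as geometric mean of ≥2 runs, each in duplicate.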
# [3] = Homo sapiens, HEK293, HEK293 clonal line overexpressing APOL1 G1
SMILES,"pEC50 [1, 3]",pEC50 ([2]; Homo sapiens),pEC50 ([1]; HEK293 clonal line overexpressing APOL1 G1),pEC50 [2]
"O=C1Nc2ccc(Cl)cc2C12CCN(CCOc1cnc3c(N4CC(O)C4)nccc3c1)CC2 [Compound 314, 5-chloro-1′-(2-{[8-(3-hydroxyazetidin-1-yl)-1,7-naphthyridin-3-yl]oxy}ethyl)-1,2-dihydrospiro[indole-3,4′-piperidin]-2-one]",7.27,8.34,,
"O=C(c1ccc(OCCN2CCC3(CC2)C(=O)Nc2ccc(Cl)cc23)cc1C(F)(F)F)N1CCS(=O)(=O)CC1 [Compound 272, 4-[4-(2-{5-chloro-2-oxo-1,2-dihydrospiro[indole-3,4′-piperidin]-1′-yl}ethoxy)-2-(trifluoromethyl)benzoyl]-1λ^6-thiomorpholine-1,1-dione]",6.83,9.00,,
"CC(C)(O)c1ncc(OCCN2CCC3(CC2)C(=O)Nc2ccc(Cl)cc23)cn1 [Compound 305, 5-chloro-1′-(2-{[2-(2-hydroxypropan-2-yl)pyrimidin-5-yl]oxy}ethyl)-1,2-dihydrospiro[indole-3,4′-piperidin]-2-one]",6.76,7.82,,
"CN1C(=O)C2(CCN(CCOc3cc(F)c(C(=O)N4CCS(=O)(=O)CC4)c(F)c3)CC2)c2cc(C#N)ccc21 [Compound 260, 1′-{2-[4-(1,1-dioxo-1λ^6-thiomorpholine-4-carbonyl)-3,5-difluorophenoxy]ethyl}-1-methyl-2-oxo-1,2-dihydrospiro[indole-3,4′-piperidine]-5-carbonitrile]",6.61,7.99,,
"C[C@]1(O)C[C@@H](N2C(=O)OCc3cc(OCCN4CCC5(CC4)C(=O)Nc4ccc(Cl)cc45)cnc32)C1 [Compound 289, 5-chloro-1′-[2-({2-oxo-1-[(cis)-3-hydroxy-3-methylcyclobutyl]-1H,2H,4H-pyrido[2,3-d][1,3]oxazin-6-yl]oxy)ethyl]-1,2-dihydrospiro[indole-3,4′-piperidin]-2-one]",7.30,8.65,,
"O=C(c1c(F)cc(OCCN2CCC3(CC2)C(=O)Nc2ccc(Cl)cc23)cc1F)N1CCS(=O)(=O)CC1 [Compound 259, 4-[4-(2-{5-chloro-2-oxo-1,2-dihydrospiro[indole-3,4′-piperidin]-1′-yl}ethoxy)-2,6-difluorobenzoyl]-1λ^6-thiomorpholine-1,1-dione]",7.03,8.92,,
"CC1(O)CN(c2ncc(OCCN3CCC4(CC3)C(=O)Nc3ccc(Cl)cc34)cn2)C1 [Compound 300, 5-chloro-1′-(2-{[2-(3-hydroxy-3-methylazetidin-1-yl)pyrimidin-5-yl]oxy}ethyl)-1,2-dihydrospiro[indole-3,4′-piperidin]-2-one]",6.74,7.48,,
"CC[C@]1(O)C[C@H](N2C(=O)CCc3cc(OCCN4CCC5(CC4)C(=O)Nc4ccc(Cl)cc45)cnc32)C1 (single isomer, unassigned) [Compound 290, 5-chloro-1′-[2-({7-oxo-8-[(trans)-3-ethyl-3-hydroxycyclobutyl]-5,6,7,8-tetrahydro-1,8-naphthyridin-3-yl}oxy)ethyl]-1,2-dihydrospiro[indole-3,4′-piperidin]-2-one]",7.19,8.56,,
"O=C(c1ccc(OCCN2CCC3(CC2)C(=O)Nc2ccc(Cl)cc23)cc1F)N1CC2(C1)CS(=O)(=O)C2 [Compound 239, 6-[4-(2-{5-chloro-2-oxo-1,2-dihydrospiro[indole-3,4′-piperidin]-1′-yl}ethoxy)-2-fluorobenzoyl]-2λ^6-thia-6-azaspiro[3.3]heptane-2,2-dione]",6.72,8.68,,
"C[C@]1(O)C[C@@H](N2C(=O)CCc3cc(OCCN4CCC5(CC4)C(=O)Nc4ccc(Cl)cc45)cnc32)C1 [Compound 275, 5-chloro-1′-[2-({7-oxo-8-[(cis)-3-hydroxy-3-methylcyclobutyl]-5,6,7,8-tetrahydro-1,8-naphthyridin-3-yl}oxy)ethyl]-1,2-dihydrospiro[indole-3,4′-piperidin]-2-one]",7.20,8.41,,
"CC(O)c1ncc(OCCN2CCC3(CC2)C(=O)Nc2ccc(C(F)F)cc23)cc1C(F)(F)F (single isomer, unassigned) [Compound 288, 5-(difluoromethyl)-1′-[2-({6-[(1R) or (1S)-1-hydroxyethyl]-5-(trifluoromethyl)pyridin-3-yl}oxy)ethyl]-1,2-dihydrospiro[indole-3,4′-piperidin]-2-one]",,,7.21,7.71
"CS(=O)(=O)C1(c2ncc(OCCN3CCC4(CC3)C(=O)Nc3ccc(C#N)cc34)cc2F)CC1 [Compound 283, 1′-(2-{[5-fluoro-6-(1-methanesulfonylcyclopropyl)pyridin-3-yl]oxy}ethyl)-2-oxo-1,2-dihydrospiro[indole-3,4′-piperidine]-5-carbonitrile]",6.68,8.29,,
"CC(O)c1ncc(OCCN2CCC3(CC2)C(=O)Nc2ccc(Cl)cc23)cn1 (stereo not shown) [Compound 284, 5-chloro-1′-(2-{[2-(1-hydroxyethyl)pyrimidin-5-yl]oxy}ethyl)-1,2-dihydrospiro[indole-3,4′-piperidin]-2-one]",6.11,6.98,,
"CS(=O)(=O)C1(c2ncc(OCCN3CCC4(CC3)C(=O)Nc3ccc(Cl)cc34)cn2)COC1 [Compound 276, 5-chloro-1′-(2-{[2-(3-methanesulfonyloxetan-3-yl)pyrimidin-5-yl]oxy}ethyl)-1,2-dihydrospiro[indole-3,4′-piperidin]-2-one]",6.64,7.98,,
